Experimental data from US4973675A, “Hybrid nitrosoureidoanthracyclines having antitumor activity” (University of Tennessee Research Center, priority 1989, dated 1990).
Like-named read-outs stand apart in the source and are kept apart here.

Legend:
white blood cells = assay: Hematotoxicity study in non-tumor-bearing animals, white blood cell count; type: in vivo, mice
Description: FIG. 3 is a graphic representation of white blood cell counts in mice following a single dose of 2-chloroethylnitrosoureidodaunorubicin.
Clinically and in laboratory animals, anthracycline antibiotics and chloroethylnitrosourea alkylating agents currently used in medical oncology are known to be strongly myelosuppressive, with the effects of the alkylating agents on suppression of bone marrow activity being particularly profound and long-lasting.

[1] = tested on: plasmid PC15 supercoiled DNA; assay: DNA unwinding assay (interference with DNA topoisomerase I-mediated unwinding; drug-DNA intercalation); type: biochemical
DNA topoisomerase II = assay: Drug-stimulated topoisomerase II-mediated DNA cleavage assay (end-labeled PMC41 DNA); type: biochemical; details: summary of biochemical studies
[2] = Solubility in water or saline; type: physicochemical
Description: Accordingly, the compounds are formulated for administration by dissolving the compound in a pharmaceutically acceptable non-toxic carrier which contains a surfactant. The present inventors employ a formulation of 10% Cremaphor EL (a polyhydroxylated castor oil derivative) available from BASF Chemicals, 10% ethanol and 80% aqueous media (sterile water or saline solution). That quantity of the compound desired for establishing an effective dose is dissolved in a 1:1 mixture of Cremaphor EL and ethanol. Thereafter, sufficient aqueous medium is added with stirring to develop a final formulation containing 80% aqueous medium. This formulation is administered parenterally.

## COc1cccc2c1C(=O)c1c(O)c3c(c(O)c1C2=O)C[C@@](O)(C(C)=O)C[C@@H]3O[C@H]1C[C@H](NC(=O)N(CCCl)N=O)[C@H](O)[C@H](C)O1 [AD 312, 2-chloroethylnitrosoureidodaunorubicin]
White blood cells; dose 60.75 mg/kg
  acute toxicity: still not at an acute toxic level
  recovery of white blood cell count: rapid recovery again being achieved
White blood cells; dose 60.75 mg/kg, day 4
  reduction in white blood cell count: about 67%
White blood cells; single dose 40.5 mg/kg
  day of white blood cell nadir: 4 days
  full recovery of white blood cell count: ≤ 10 days
  lowering of white blood cell count: only a modest lowering of the white blood cell count
White blood cells; single dose 40.5 mg/kg, day 4, median 9×10^6 before drug
  white blood cell count nadir: 6×10^6 cells/ml
[1]; 0 = no intercalation, 9 = very strong intercalation
  relative strength of drug-DNA intercalation (arbitrary scale): 5
[1]; 4 concentrations, 125-fold range
  interference with topoisomerase I-mediated conversion of supercoiled DNA / intercalation: the ability of these compounds to intercalate, a prerequisite for topoisomerase II inhibition, is clearly established
DNA topoisomerase II
  DNA topoisomerase II-inhibitory and alkylating activity: clearly establish the DNA topoisomerase II-inhibitory activity and alkylating activity
[2]; water or saline solution
  solubility: essentially insoluble in water or saline solution
[2]; water, of the order of, read-out: solubility in water
  solubility: < 0.025 mg/mL
